Results reported in the supplement of paper PMC4862054.

How the values were obtained:
Details in all cases: incubation time: 72 h
[1] = test system: BT-474; test: normalised response (% of control), CellTiter-Glo; higher = more viable cells (100 = DMSO, 0 = benzethonium chloride kill control)
In short: (§1)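 A 20 µl suspension of breast cancer cells was seeded into each well of 384-well plates containing compound at 5 concentrations in 10-fold steps over a compound-specific 10,000-fold range. After 72 h incubation, CellTox Green fluorescence (485/520 nm) was read first, and CellTiter-Glo luminescence was read after 10 min at room temperature. Each plate was normalised against 0.1 % DMSO (100) and a positive kill control (0), and each value is the normalised signal at one concentration.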

[2] = test system: CAL-85-1; test: as above
In short: as §1

[3] = test system: MFM-223; test: as above
In short: as §1

[4] = test system: BT-549; test: as above
In short: as §1

[5] = test system: MCF-10A; test: as above
In short: as §1

[6] = test system: MDA-MB-231; test: as above
In short: as §1

[7] = test system: Hs578T; test: as above
In short: as §1

[8] = test system: BT-474; test: drug sensitivity score (DSS), CellTiter-Glo (DSS (AUC-based score)); higher = stronger drug effect (viability inhibition or cytotoxicity); extreme values may be limits of the assay
In short: (§2)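 The area under the fitted dose-response curve was used to calculate the drug sensitivity score. Cells from breast cancer lines were incubated for 72 h in 384-well plates with compound at 5 concentrations spaced 10-fold over a 10,000-fold range specific to each compound. Plates were read for CellTox Green and then CellTiter-Glo, and normalised to 0.1 % DMSO and a positive kill control.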

[9] = test system: CAL-51; test: as above
In short: as §2

[10] = test system: CAL-85-1; test: as above
In short: as §2

[11] = test system: HCC1599; test: as above
In short: as §2

[12] = test system: HCC1937; test: as above
In short: as §2

[13] = test system: SK-BR-3; test: as above
In short: as §2

[14] = test system: MFM-223; test: as above
In short: as §2

[15] = test system: BT-549; test: as above
In short: as §2

[16] = test system: MDA-MB-436; test: as above
In short: as §2

[17] = test system: DU-4475; test: as above
In short: as §2

[18] = test system: CAL-148; test: as above
In short: as §2

[19] = test system: HDQ-P1; test: as above
In short: as §2

[20] = test system: MDA-MB-453; test: as above
In short: as §2

[21] = test system: CAL-120; test: as above
In short: as §2

[22] = test system: HCC1143; test: as above
In short: as §2

[23] = test system: MCF-10A; test: as above
In short: as §2

[24] = test system: MDA-MB-231; test: as above
In short: as §2

[25] = test system: MDA-MB-468; test: as above
In short: as §2

[26] = test system: Hs578T; test: as above
In short: as §2

| Compound | normalised response [1] [%] | normalised response [2] [%] | normalised response [3] [%] | normalised response [4] [%] | normalised response [5] [%] | normalised response [6] [%] | normalised response [7] [%] | further results |
| --- | --- | --- | --- | --- | --- | --- | --- | --- |
| Oc1ncnc2[nH]ncc12 [Allopurinol] (10000 nM) | 97.9 | 106 | 103 | 102 | 105 | 103 | 102 |  |
| Nc1ncn([C@@H]2O[C@H](CO)[C@@H](O)[C@H]2O)c(=O)n1 [Azacitidine] (10000 nM) | 71.4 | 106 | 53.8 | 45 | 77 | 68 | 58.9 |  |
| Cn1cnc2c(F)c(Nc3ccc(Br)cc3Cl)c(C(=O)NOCCO)cc21 [Selumetinib] (10000 nM) | 55.5 | 61 | 67.9 | 84.1 | 31.8 | 62.4 | 76.4 |  |
| COc1cc2c(cc1O)CC[C@@H]1[C@@H]2CC[C@]2(C)[C@@H](O)CC[C@@H]12 [2-methoxyestradiol] (10000 nM) | 58.1 | 33.3 | 54.4 | 48.8 | 67.1 | 51.9 | 25.4 |  |
| O=NN(CCCl)C(=O)NCCCl [Carmustine] (10000 nM) | 91.5 | 101 | 94.4 | 110 | 93.8 | 99.9 | 101 |  |
| CC(=O)O[C@@]12CO[C@@H]1C[C@H](O)[C@@]1(C)C(=O)[C@H](O)C3=C(C)[C@@H](OC(=O)[C@H](O)[C@@H](NC(=O)OC(C)(C)C)c4ccccc4)C[C@@](O)([C@@H](OC(=O)c4ccccc4)[C@H]21)C3(C)C [Docetaxel] (1000 nM) | 39.3 | 28.9 | 48.9 | 17.1 | 48 | 28.5 | 13.6 |  |
| CC1(C)CNc2cc(NC(=O)c3cccnc3NCc3ccncc3)ccc21 [Motesanib] (10000 nM) | 90.9 | 95.8 | 88.1 | 97 | 95.4 | 93.5 | 91.8 |  |
| Nc1nc2[nH]cnc2c(=S)[nH]1 [Thioguanine] (10000 nM) | 40.8 | 51.7 | 72.9 | 48.5 | 66.9 | 33.4 | 33.2 |  |
| O=C1CN2Cc3c(ccc(Cl)c3Cl)N=C2N1 [Anagrelide] (10000 nM) | 88 | 94.4 | 99.6 | 97.3 | 105 | 99.5 | 80.5 |  |
| CC(C)(C)c1cnc(CSc2cnc(NC(=O)C3CCNCC3)s2)o1 [SNS-032] (10000 nM) | 31.8 | 7.47 | 32 | 5.15 | 17.1 | 8.77 | 8.34 |  |
| Cn1cc(C2=Nc3cc(NC(=O)C(N)C4CCCCC4)cc4c3C2=CNNC4=O)cn1 (configuration not stated) (10000 nM) | 38.3 | 26.7 | 50.4 | 12.1 | 38.6 | 37.3 | 26.6 |  |
| Cc1sc2c(c1C)C(c1ccc(Cl)cc1)=N[C@@H](CC(=O)OC(C)(C)C)c1nnc(C)n1-2 [(+)JQ1] (10000 nM) | 66.1 | 27.9 | 45.1 | 35.7 | 46.5 | 64.2 | 41.3 |  |
| CC1=C2C[C@H]3[C@@H](CC=C4C[C@@H](O)CC[C@@]43C)[C@@H]2CC[C@]12O[C@@H]1C[C@H](C)CN[C@H]1[C@H]2C [Cyclopamine] (10000 nM) | 113 | 104 | 101 | 58 | 108 | 106 | 101 |  |
| CC[C@@H]1C(=O)OC[C@@H]1Cc1cncn1C [Pilocarpine] (40000 nM) | 91.6 | 94.6 | 97.6 | 102 | 99.1 | 93.4 | 99 |  |
| COc1cc(F)c(F)c(Nc2ccc(I)cc2F)c1NS(=O)(=O)C1(C[C@H](O)CO)CC1 [Refametinib] |  |  |  |  |  |  |  | drug sensitivity score [8]: 8.51; drug sensitivity score [9]: 0; drug sensitivity score [10]: 10.4; drug sensitivity score [11]: 0; drug sensitivity score [12]: 4.08; drug sensitivity score [13]: 0; drug sensitivity score [14]: 5.74; drug sensitivity score [15]: 2.33; drug sensitivity score [16]: 4.19; drug sensitivity score [17]: 26.1; drug sensitivity score [18]: 2.69; drug sensitivity score [19]: 12.7; drug sensitivity score [20]: 0; drug sensitivity score [21]: 7.28; drug sensitivity score [22]: 2.8; drug sensitivity score [23]: 23.6; drug sensitivity score [24]: 9.15; drug sensitivity score [25]: 7.13; drug sensitivity score [26]: 4.13 |
